The record followed here is patent US20240182436A1, “SUBSTITUTED SULFONAMIDE-CHROMAN COMPOUNDS, AND PHARMACEUTICAL COMPOSITIONS, AND METHODS OF USE THEREOF” (priority 2021, published 2024).

Molecules are shown by their SMILES.

For the assay, the system named is Harmaline-induced tremor. Kind of assay: Harmaline-induced Tremor Model. The assay is classed as in vivo. The conditions noted are these: adult male CD1 mice, test article 30 mg/kg i.p., harmaline 30 mg/kg i.p.; for inhibition in vivo at 30 mg/kg: Mus musculus, ip, read-out: Tremor Suppression Activity (magnitude of tremor suppression in percent compared to vehicle); for Tremor power relative to baseline (mean ± s.e.m.): 10-20 Hz power over 20 min relative to 20-min baseline. From the text: Harmaline-induced Tremor: Harmaline-induced tremor is widely recognized as an animal model of Essential Tremor (ET). Following acute administration, harmaline produces an 8-16 Hz tremor in rodents, cats, and monkeys that, like ET, is postural and kinetic, involving appendicular and axial musculature (Handforth, A. (2012). Harmaline tremor: underlying mechanisms in a potential animal model of essential tremor. Tremor and Other Hyperkinetic Movements (NY), 2, 02-92-769-1; Handforth, A. (2016). Linking Essential Tremor to the Cerebellum-Animal Model Evidence. Cerebellum, 15(3), 285-298; LeDoux, M. (2005). Harmaline tremor. In Movement Disorders. Elsevier Inc.; Louis, E. D. (2014). Re-thinking the biology of essential tremor: From models to morphology. Parkinsonism and Related Disorders, 20 (SUPPL.1), S88-S93). […] Clinical agents that suppress ET in patients are generally effective in the harmaline-induced tremor model (Handforth 2016). Following acute dosing of harmaline in mice, the tremor frequency (10-20 Hz) is typically recorded using an automated force plate-based system.
Procedure: Tremor activity was measured using a custom-made testing apparatus containing a piezoelectric sensing platform which was connected to an amplifier (A-M Systems model 1700). Adult male CD1 mice were brought to the experiment room for acclimatization 1 h prior to testing. Mice were first placed inside the testing apparatus for 10 min baseline habituation. After the initial habituation, mice were treated with vehicle (10 ml/kg) or test article (30 mg/kg, i.p.) and placed back in the apparatus for an additional 20 min baseline recording. Subsequently, animals were injected with harmaline (30 mg/kg, i.p.) and tremor activity was measured for 20 min. The electric signal of tremor activity was amplified at a sampling rate of 512 Hz with a multichannel amplifier and then acquired, quantized, and digitized by a data acquisition unit (CED Micro 1401). The software Spike2 (v 7.07, Cambridge Electronic Design, Cambridge, UK) was used to analyze the tremor signal by performing Fourier transformation of the data into frequency spectra. Changes in absolute power were expressed relative to each animal's 20-min baseline for the frequencies of 10-20 Hz. Comparisons between treatment and respective vehicle groups were assessed with two-tailed, Student's t-test. The level of statistical significance was defined as p<0.05 (see, e.g., Table 2.1) The magnitude of tremor suppression in percent compared to vehicle is shown in Table 2.2.
A tremor suppression score was defined as the magnitude of tremor suppression in percent compared to vehicle: ≤24% (D), 25-55% (C), 56-70% (B) and 71-100% (A). Not tested (---).

On to `NS(=O)(=O)CC1CCOc2cc(Cl)ccc21` (single isomer, unassigned) [Compound 31, (S*)-(7-chlorochroman-4-yl)methanesulfonamide], for which the inhibition in vivo at 30 mg/kg was in the range of 71 to 100%.
With `NS(=O)(=O)CC1CCOc2cc(Cl)ccc21` (single isomer, unassigned) [Compound 32, (R*)-(7-chlorochroman-4-yl)methanesulfonamide], the “Tremor Suppression Activity (magnitude of tremor suppression in percent compared to vehicle)” value is given as “B (56-70% (B))”.
Take `NS(=O)(=O)CC1CCOc2cc(C(F)(F)F)ccc21` (single isomer, unassigned) [Compound 37, (S*)-(7-(trifluoromethyl)chroman-4-yl)methanesulfonamide]: the inhibition in vivo at 30 mg/kg lay within 56 to 70%.
Consider `NS(=O)(=O)CC1CCOc2cc(C(F)(F)F)ccc21` (single isomer, unassigned) [Compound 38, (R*)-(7-(trifluoromethyl)chroman-4-yl)methanesulfonamide], for which the “Tremor Suppression Activity (magnitude of tremor suppression in percent compared to vehicle)” value was “A (71-100% (A))”.
Regarding `CC1(C)COc2cc(F)ccc2C1CS(N)(=O)=O` (single isomer, unassigned) [Compound 43, (S*)-(7-fluoro-3,3-dimethylchroman-4-yl)methanesulfonamide], the inhibition in vivo at 30 mg/kg was at most 24%.
Turning to `CC1(C)COc2cc(F)ccc2C1CS(N)(=O)=O` (single isomer, unassigned) [Compound 44, (R*)-(7-fluoro-3,3-dimethylchroman-4-yl)methanesulfonamide], the “Tremor Suppression Activity (magnitude of tremor suppression in percent compared to vehicle)” value is listed as “C (25-55% (C))” and the “Tremor power relative to baseline (mean ± s.e.m.)” value (from here on “Tremor power relative to baseline”) is recorded as 518 ± 109.
For `CC1(C)CC(CS(N)(=O)=O)c2ccc(F)cc2O1` (single isomer, unassigned) [Compound 45, (R*)-(7-fluoro-2,2-dimethylchroman-4-yl)methanesulfonamide], the inhibition in vivo at 30 mg/kg was 71 to 100% and the “Tremor power relative to baseline” value worked out at 144 ± 35.
For `CC1(C)CC(CS(N)(=O)=O)c2ccc(F)cc2O1` (single isomer, unassigned) [Compound 46, (S*)-(7-fluoro-2,2-dimethylchroman-4-yl)methanesulfonamide], the “Tremor Suppression Activity (magnitude of tremor suppression in percent compared to vehicle)” value is “A (71-100% (A))” and the “Tremor power relative to baseline” value was 145 ± 27.
`Cc1ccc2c(c1)OCCC2CS(N)(=O)=O` (single isomer, unassigned) [Compound 57, (S*)-(7-methylchroman-4-yl)methanesulfonamide]: the inhibition in vivo at 30 mg/kg is at most 24%.
On the same count and under the same terms, to `N#Cc1ccc2c(c1)OCCC2CS(N)(=O)=O` (single isomer, unassigned) [Compound 59, (S*)-(7-cyanochroman-4-yl)methanesulfonamide] belongs at most 24%.
`N#Cc1ccc2c(c1)OCCC2CS(N)(=O)=O` (single isomer, unassigned) [Compound 60, (R*)-(7-cyanochroman-4-yl)methanesulfonamide]: the “Tremor Suppression Activity (magnitude of tremor suppression in percent compared to vehicle)” value is “C (25-55% (C))”.
With `C[C@H]1COc2cc(F)c(F)cc2[C@H]1CS(N)(=O)=O` (stereo in doubt) [Compound 7, ((3R*,4S*)-6,7-difluoro-3-methylchroman-4-yl)methanesulfonamide], the inhibition in vivo at 30 mg/kg lay in the range of 25 to 55%.
On the same count and under the same terms, the same measure for `C[C@@H]1COc2cc(F)c(F)cc2[C@@H]1CS(N)(=O)=O` (stereo in doubt) [Compound 8, ((3S*,4R*)-6,7-difluoro-3-methylchroman-4-yl)methanesulfonamide]: 25 to 55%; for `C[C@@H]1COc2cc(F)c(F)cc2[C@H]1CS(N)(=O)=O` (stereo in doubt) [Compound 9, ((3S*,4S*)-6,7-difluoro-3-methylchroman-4-yl)methanesulfonamide]: 25 to 55%; for `C[C@H]1COc2cc(F)c(F)cc2[C@@H]1CS(N)(=O)=O` (stereo in doubt) [Compound 10, ((3R*,4R*)-6,7-difluoro-3-methylchroman-4-yl)methanesulfonamide]: at most 24%.
As to `CC[C@@H]1C[C@H](CS(N)(=O)=O)c2ccc(F)cc2O1` (stereo in doubt) [Compound 11, ((2R*,4S*)-2-ethyl-7-fluorochroman-4-yl)methanesulfonamide], the inhibition in vivo at 30 mg/kg lay in the range of 71 to 100% and the “Tremor power relative to baseline” value came out at 134 ± 32.
The like results for `CC[C@H]1C[C@@H](CS(N)(=O)=O)c2ccc(F)cc2O1` (stereo in doubt) [Compound 12, ((2S*,4R*)-2-ethyl-7-fluorochroman-4-yl)methanesulfonamide] were, in that order, 56 to 70% and 196 ± 59.
For `CC[C@H]1COc2cc(F)ccc2[C@H]1CS(N)(=O)=O` (stereo in doubt) [Compound 19, ((3R*,4S*)-3-ethyl-7-fluorochroman-4-yl)methanesulfonamide], the inhibition in vivo at 30 mg/kg is at most 24%.
Same read-out and setting: the same measure for `CC[C@@H]1COc2cc(F)ccc2[C@@H]1CS(N)(=O)=O` (stereo in doubt) [Compound 20, ((3S*,4R*)-3-ethyl-7-fluorochroman-4-yl)methanesulfonamide]: 71 to 100%.
On the same count and under the same terms, to `CC[C@@H]([C@H]1CCOc2cc(F)ccc21)S(N)(=O)=O` (stereo in doubt) [Compound 25, (S*)-1-((S*)-7-fluorochroman-4-yl)propane-1-sulfonamide] belongs 56 to 70%; to `CC[C@H]([C@@H]1CCOc2cc(F)ccc21)S(N)(=O)=O` (stereo in doubt) [Compound 26, (R*)-1-((R*)-7-fluorochroman-4-yl)propane-1-sulfonamide], 71 to 100%.
Consider `C[C@@H]1C[C@H](CS(N)(=O)=O)c2ccccc2O1` (stereo in doubt) [Compound 33, ((2R*,4S*)-2-methylchroman-4-yl)methanesulfonamide], for which the inhibition in vivo at 30 mg/kg lay within 25 to 55%.
On the same count and under the same terms, the same measure for `C[C@H]1C[C@@H](CS(N)(=O)=O)c2ccccc2O1` (stereo in doubt) [Compound 34, ((2S*,4R*)-2-methylchroman-4-yl)methanesulfonamide]: 56 to 70%; for `C[C@H]1COc2ccccc2[C@H]1CS(N)(=O)=O` (stereo in doubt) [Compound 39, ((3R*,4S*)-3-methylchroman-4-yl)methanesulfonamide]: 25 to 55%; for `C[C@@H]1COc2ccccc2[C@@H]1CS(N)(=O)=O` (stereo in doubt) [Compound 40, ((3S*,4R*)-3-methylchroman-4-yl)methanesulfonamide]: 25 to 55%.
On the same count and under the same terms, the same measure for `C[C@@H]1COc2ccccc2[C@H]1CS(N)(=O)=O` (stereo in doubt) [Compound 41, ((3S*,4S*)-3-methylchroman-4-yl)methanesulfonamide]: 56 to 70%.
Take `C[C@H]1COc2ccccc2[C@@H]1CS(N)(=O)=O` (stereo in doubt) [Compound 42, ((3R*,4R*)-3-methylchroman-4-yl)methanesulfonamide]: the inhibition in vivo at 30 mg/kg is at most 24%.
On to `CN([C@H]1CCOc2cc(F)ccc21)S(N)(=O)=O` (stereo in doubt) [Compound 69, 4(S*))-7-fluoro-4-[methyl(sulfamoyl)amino]-3,4-dihydro-2(H)-chromene], for which the inhibition in vivo at 30 mg/kg is at most 24%.
With `CN([C@@H]1CCOc2cc(F)ccc21)S(N)(=O)=O` (stereo in doubt) [Compound 70, 4(R*))-7-fluoro-4[methyl(sulfamoyl)amino]-3,4-dihydro-2(H)-chromene], the inhibition in vivo at 30 mg/kg is at most 24%.
For `NS(=O)(=O)N[C@H]1CCOc2cc(F)ccc21` (stereo in doubt) [Compound 71, 4(S*))-7-fluoro-4-(sulfamoylamino)-3,4-dihydro-2(H)-chromene], the inhibition in vivo at 30 mg/kg lay in the range of 56 to 70%.
Still for that read-out and setting: the same measure for `NS(=O)(=O)N[C@@H]1CCOc2cc(F)ccc21` (stereo in doubt) [Compound 72, 4(R*))-7-fluoro-4-(sulfamoylamino)-3,4-dihydro-2(H)-chromene]: 25 to 55%; for `C[C@@H]1COc2cc(F)ccc2[C@@H]1NS(N)(=O)=O` (stereo in doubt) [Compound 73, (3(S*),4(R*))-7-fluoro-3-methyl-4-(sulfamoylamino)-3,4-dihydro-2(H)-chromene]: 56 to 70%.
